Experiments:
Format in all cases: in vivo
[1] = test system: windgrass (Apera spica-venti); test: Test B postemergence plant response; conditions: for Windgrass plant response rating (0 to 100 scale): 62 g ai/ha, 0 is no effect, 13 to 15 days
Text: (§1) At the same time, plants selected from these crop and weed species and also winter barley (Hordeum vulgare), canarygrass (Phalaris minor), chickweed (Stellaria media) and windgrass (Apera spica-venti) were planted in pots containing Redi-Earth® planting medium (Scotts Company, 14111 Scottslawn Road, Marysville, Ohio 43041) comprising spaghnum peat moss, vermiculite, wetting agent and starter nutrients and treated with postemergence applications of some of the test chemicals formulated in the same manner. Plants ranged in height from 2 to 18 cm (1- to 4-leaf stage) for postemergence treatments.
(§2) Treated plants and controls were maintained in a greenhouse for 13 to 15 days, after which time all treated plants were visually evaluated and compared to controls. Plant response ratings, summarized in Table B, are based on a scale of 0 to 100 where 0 is no effect and 100 is complete control. A dash (-) response means no test result.

[2] = test system: winter barley (Hordeum vulgare); test: Test B postemergence plant response; conditions: for Barley plant response rating (0 to 100 scale): 62 g ai/ha, 0 is no effect, 13 to 15 days
Text: as §1, §2

[3] = test system: chickweed (Stellaria media); test: Test B postemergence plant response; conditions: for Chickweed plant response rating (0 to 100 scale): 62 g ai/ha, 0 is no effect, 13 to 15 days
Text: as §1, §2

[4] = test system: canarygrass (Phalaris minor); test: Test B postemergence plant response; conditions: for Canarygrass plant response rating (0 to 100 scale): 62 g ai/ha, 0 is no effect, 13 to 15 days
Text: as §1, §2

[5] = test system: ragweed (common ragweed, Ambrosia elatior); test: Test B pre-/postemergence plant response; conditions: for Ragweed plant response rating (0 to 100 scale): 62 g ai/ha, 0 is no effect, 13 to 15 days
Outline: (§3)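 Each species received compound formulated in non-phytotoxic solvent with surfactant, either at planting into a loam and sand blend or as a foliar spray once plants reached 2 to 18 cm in peat-based medium. Plants stayed in the greenhouse 13 to 15 days before visual evaluation against controls, scored 0 (no effect) to 100 (complete control).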

[6] = test system: Italian ryegrass (Lolium multiflorum); test: Test B pre-/postemergence plant response; conditions: for Ryegrass, Italian plant response rating (0 to 100 scale): 62 g ai/ha, 0 is no effect, 13 to 15 days
Outline: as §3

[7] = test system: giant foxtail (Setaria faberii); test: Test B pre-/postemergence plant response; conditions: for Foxtail, Giant plant response rating (0 to 100 scale): 62 g ai/ha, 0 is no effect, 13 to 15 days
Outline: as §3

rice (Oryza sativa) = test: Test B flooded paddy test; conditions: for Plant response rating, Flood, Rice: 250 g ai/ha, flooded paddy test, visual rating on 0 to 100 scale (0 no effect, 100 complete control) after 13 to 15 days; for Plant response rating, Rice: Flood (flooded paddy test), 13 to 15 days; for Rice plant response rating: Flood, 31 g ai/ha, scale 0 to 100 (0 no effect, 100 complete control)
Outline: (§4)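 Seedlings reaching 2 leaves are flooded 3 cm deep; test material is delivered to that water, which stays at the same depth. Plants remain in a greenhouse 13–15 days and are then scored by eye versus controls from 0 to 100.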

[8] = test system: umbrella sedge (Cyperus difformis); test: Test B flooded paddy test; conditions: for Plant response rating, Flood, Sedge, Umbrella: 250 g ai/ha, flooded paddy test, visual rating on 0 to 100 scale (0 no effect, 100 complete control) after 13 to 15 days; for Plant response rating, Sedge, Umbrella: Flood (flooded paddy test), 13 to 15 days; for Sedge, Umbrella plant response rating: Flood, 31 g ai/ha, scale 0 to 100 (0 no effect, 100 complete control)
Outline: as §4

[9] = test system: ducksalad (Heteranthera limosa); test: Test B flooded paddy test; conditions: for Plant response rating, Flood, Ducksalad: 250 g ai/ha, flooded paddy test, visual rating on 0 to 100 scale (0 no effect, 100 complete control) after 13 to 15 days; for Plant response rating, Ducksalad: Flood (flooded paddy test), 13 to 15 days; for Ducksalad plant response rating: Flood, 31 g ai/ha, scale 0 to 100 (0 no effect, 100 complete control)
Outline: as §4

[10] = test system: barnyardgrass (Echinochloa crus-galli); test: Test B flooded paddy test; conditions: for Plant response rating, Flood, Barnyardgrass: 250 g ai/ha, flooded paddy test, visual rating on 0 to 100 scale (0 no effect, 100 complete control) after 13 to 15 days; for Plant response rating, Barnyardgrass: Flood (flooded paddy test), 13 to 15 days; for Barnyardgrass plant response rating: Flood, 31 g ai/ha, scale 0 to 100 (0 no effect, 100 complete control)
Outline: as §4

[11] = postemergence, 100 is complete control
[12] = Postemergence, 125 g ai/ha, scale 0 to 100 (0 no effect, 100 complete control)
[13] = Postemergence, 250 g ai/ha, scale 0 to 100 (0 no effect, 100 complete control)
[14] = 31 g ai/ha, postemergence, scale 0 to 100, 0 is no effect, 100 is complete control
[15] = 62 g ai/ha, scale of 0 to 100 where 0 is no effect and 100 is complete control
[16] = 125 g ai/ha, scale 0 to 100, 0 is no effect, 100 is complete control
[17] = Postemergence, 125 g ai/ha, visual rating after 13 to 15 days, scale 0 (no effect) to 100 (complete control)

SMILES: O=C1CCCC(O)=C1C(=O)c1cnc(-c2ccsc2)n(CC2CCCO2)c1=O (stereo not shown) [Compound 98]
- Windgrass plant response rating (0 to 100 scale) [1, 11]: 20
- Plant response rating, Windgrass [1, 12]: 50
- Plant response rating, Windgrass [1, 13]: 70
- Plant response rating, Barley [2, 14]: 0
- Barley plant response rating (0 to 100 scale) [2, 11]: 5
- Plant response rating, Barley [2, 12]: 10
- Plant response rating, Barley [2, 13]: 15
- Plant response rating, Chickweed [3, 14]: 80
- Chickweed plant response rating (0 to 100 scale) [3, 11]: 80
- Plant response rating, Chickweed [3, 12]: 98
- Plant response rating, Chickweed [3, 13]: 100
- Plant response rating, Canarygrass [4, 14]: 5
- Canarygrass plant response rating (0 to 100 scale) [4, 11]: 20
- Plant response rating, Canarygrass [4, 12]: 35
- Plant response rating, Canarygrass [4, 13]: 50
- Ragweed plant response rating (0 to 100 scale) [5, 11]: 75
- Plant response rating, Ragweed [5, 12]: 80
- Plant response rating, Ragweed [5, 13]: 90
- Ryegrass, Italian plant response rating (0 to 100 scale) [6, 11]: 5
- Plant response rating, Ryegrass, Italian [6, 12]: 15
- Plant response rating, Ryegrass, Italian [6, 13]: 15
- Plant response rating, Foxtail, Giant [7, 14]: 65
- Foxtail, Giant plant response rating (0 to 100 scale) [7, 11]: 75
- Plant response rating, Foxtail, Giant [7, 12]: 85
- Plant response rating, Foxtail, Giant [7, 13]: 85
- Plant response rating, Flood, Rice (rice (Oryza sativa)): 40
- Plant response rating, Rice (rice (Oryza sativa); [15]): 0
- Plant response rating, Rice (rice (Oryza sativa); [16]): 0
- Rice plant response rating (rice (Oryza sativa)): 0
- Plant response rating, Flood, Sedge, Umbrella [8]: 75
- Plant response rating, Sedge, Umbrella [8, 15]: 65
- Plant response rating, Sedge, Umbrella [8, 16]: 75
- Sedge, Umbrella plant response rating [8]: 40
- Plant response rating, Flood, Ducksalad [9]: 0
- Plant response rating, Ducksalad [9, 15]: 0
- Plant response rating, Ducksalad [9, 16]: 0
- Ducksalad plant response rating [9]: 0
- Plant response rating, Flood, Barnyardgrass [10]: 50
- Plant response rating, Barnyardgrass [10, 15]: 30
- Plant response rating, Barnyardgrass [10, 16]: 30
- Barnyardgrass plant response rating [10]: 0

SMILES: O=C1CCCC(O)=C1C(=O)c1cnc(-c2ccc(Br)cc2)n(-c2ccccc2)c1=O [Compound 70]
- Plant response rating, Windgrass [1, 14]: 80
- Windgrass plant response rating (0 to 100 scale) [1, 11]: 85
- Plant response rating, Windgrass [1, 17]: 90
- Plant response rating, Windgrass [1, 13]: 100
- Plant response rating, Barley [2, 14]: 10
- Barley plant response rating (0 to 100 scale) [2, 11]: 30
- Plant response rating, Barley [2, 17]: 90
- Plant response rating, Barley [2, 13]: 90
- Plant response rating, Chickweed [3, 14]: 80
- Chickweed plant response rating (0 to 100 scale) [3, 11]: 90
- Plant response rating, Chickweed [3, 17]: 98
- Plant response rating, Chickweed [3, 13]: 100
- Plant response rating, Canarygrass [4, 14]: 50
- Canarygrass plant response rating (0 to 100 scale) [4, 11]: 80
- Plant response rating, Canarygrass [4, 17]: 85
- Plant response rating, Canarygrass [4, 13]: 98
- Plant response rating, Ragweed [5, 14]: 60
- Ragweed plant response rating (0 to 100 scale) [5, 11]: 70
- Plant response rating, Ragweed [5, 17]: 75
- Plant response rating, Ragweed [5, 13]: 80
- Plant response rating, Ryegrass, Italian [6, 14]: 10
- Ryegrass, Italian plant response rating (0 to 100 scale) [6, 11]: 10
- Plant response rating, Ryegrass, Italian [6, 17]: 50
- Plant response rating, Ryegrass, Italian [6, 13]: 70
- Plant response rating, Foxtail, Giant [7, 14]: 75
- Foxtail, Giant plant response rating (0 to 100 scale) [7, 11]: 85
- Plant response rating, Foxtail, Giant [7, 17]: 95
- Plant response rating, Foxtail, Giant [7, 13]: 98
- Plant response rating, Flood, Rice (rice (Oryza sativa)): 20
- Plant response rating, Rice (rice (Oryza sativa); [15]): 0
- Plant response rating, Rice (rice (Oryza sativa); [16]): 0
- Rice plant response rating (rice (Oryza sativa)): 0
- Plant response rating, Flood, Sedge, Umbrella [8]: 20
- Plant response rating, Sedge, Umbrella [8, 15]: 0
- Plant response rating, Sedge, Umbrella [8, 16]: 20
- Sedge, Umbrella plant response rating [8]: 0
- Plant response rating, Flood, Ducksalad [9]: 0
- Plant response rating, Ducksalad [9, 15]: 0
- Plant response rating, Ducksalad [9, 16]: 0
- Ducksalad plant response rating [9]: 0
- Plant response rating, Flood, Barnyardgrass [10]: 20
- Plant response rating, Barnyardgrass [10, 15]: 0
- Plant response rating, Barnyardgrass [10, 16]: 0
- Barnyardgrass plant response rating [10]: 0

From US8952024B2, “Herbicidal pyrimidone derivatives” (E I du Pont de Nemours and Company, priority 2009, dated 2015)
